Patent US20230150960A1, “COMPOSITIONS AND METHODS OF USING CYANINE DYES TO TARGET CANCER AND MITOCHONDRIA” (Thomas Jefferson University, priority 2020, published 2023)

Assays:
Type in all cases: physicochemical
[1] = Solubility of glycerol-containing formulations (post vortexing, 30 min and overnight at 18° C.); settings: glycerol-containing formulation, compound 2 mg/mL; for solubility at 30 min / solubility: 18 °C; for solubility at 30 min: after 30 minutes incubation at 18° C.; for solubility: overnight incubation at 18° C.; for solubility at 30 s: post vortexing
Experimental: (§1) Tables 3A, 3B, and 3C describe solubility experiments conducted with the indicated compounds under the listed conditions. Vortexing was conducted using a Denville Vortexer 59 (Denville Scientific Inc.), at maximum speed for 30 seconds. As used herein, the term overnight refers to a period lasting at least about 12-24 hours.

[2] = Solubility of BSA-containing formulations (post vortexing, 30 min and overnight at 18° C.); settings: BSA-containing formulation, aqueous with cosolvent or surfactant or cyclodextrin, compound 2 mg/mL; for solubility at 30 min / solubility: 18 °C; for solubility at 30 min: after 30 minutes incubation at 18° C.; for solubility: overnight incubation at 18° C.; for solubility at 30 s: post vortexing
Experimental: Vortexing was conducted using a Denville Vortexer 59 (Denville Scientific Inc.), at maximum speed for 30 seconds. As used herein, the term overnight refers to a period lasting at least about 12-24 hours.

[3] = Solubility of sodium deoxycholate-containing formulations (post vortexing, 30 min and overnight at 18° C.); settings: compound 2 mg/mL; for solubility at 30 s: post vortexing
Experimental: as §1, with “5A, 5B,” for “3A, 3B,”, “5C” for “3C”

solubility at 30 min ([1]; aqueous with cosolvent or surfactant or cyclodextrin, 10% glycerol, read-out: Solubility of glycerol-containing formulations after 30 min incubation at 18° C., 10%): < 2000 µg/mL | solubility ([1]; aqueous with cosolvent or surfactant or cyclodextrin, 10% glycerol, read-out: Solubility of glycerol-containing formulations after overnight incubation at 18° C., 10%): < 2000 µg/mL | solubility at 30 min ([1]; aqueous with cosolvent or surfactant or cyclodextrin, 20% glycerol, read-out: Solubility of glycerol-containing formulations after 30 min incubation at 18° C., 20%): < 2000 µg/mL | solubility ([1]; aqueous with cosolvent or surfactant or cyclodextrin, 20% glycerol, read-out: Solubility of glycerol-containing formulations after overnight incubation at 18° C., 20%): < 2000 µg/mL | solubility at 30 min ([1]; aqueous with cosolvent or surfactant or cyclodextrin, 30% glycerol, read-out: Solubility of glycerol-containing formulations after 30 min incubation at 18° C., 30%): < 2000 µg/mL | solubility ([1]; aqueous with cosolvent or surfactant or cyclodextrin, 30% glycerol, read-out: Solubility of glycerol-containing formulations after overnight incubation at 18° C., 30%): < 2000 µg/mL | solubility at 30 min ([1]; aqueous with cosolvent or surfactant or cyclodextrin, 40% glycerol, read-out: Solubility of glycerol-containing formulations after 30 min incubation at 18° C., 40%): < 2000 µg/mL | solubility ([1]; aqueous with cosolvent or surfactant or cyclodextrin, 40% glycerol, read-out: Solubility of glycerol-containing formulations after overnight incubation at 18° C., 40%): < 2000 µg/mL | solubility at 30 min ([1]; aqueous with cosolvent or surfactant or cyclodextrin, 50% glycerol, read-out: Solubility of glycerol-containing formulations after 30 min incubation at 18° C., 50%): < 2000 µg/mL | solubility ([1]; aqueous with cosolvent or surfactant or cyclodextrin, 50% glycerol, read-out: Solubility of glycerol-containing formulations after overnight incubation at 18° C., 50%): < 2000 µg/mL | solubility at 30 min ([1]; 0% glycerol, read-out: Solubility of glycerol-containing formulations after 30 min incubation at 18° C., 0%): < 2000 µg/mL | solubility ([1]; 0% glycerol, read-out: Solubility of glycerol-containing formulations after overnight incubation at 18° C., 0%): < 2000 µg/mL | solubility at 30 s ([1]; aqueous with cosolvent or surfactant or cyclodextrin, 10% glycerol, read-out: Solubility of glycerol-containing formulations post vortexing, 10%): < 2000 µg/mL | solubility at 30 s ([1]; aqueous with cosolvent or surfactant or cyclodextrin, 20% glycerol, read-out: Solubility of glycerol-containing formulations post vortexing, 20%): < 2000 µg/mL | solubility at 30 s ([1]; aqueous with cosolvent or surfactant or cyclodextrin, 30% glycerol, read-out: Solubility of glycerol-containing formulations post vortexing, 30%): < 2000 µg/mL | solubility at 30 s ([1]; aqueous with cosolvent or surfactant or cyclodextrin, 40% glycerol, read-out: Solubility of glycerol-containing formulations post vortexing, 40%): < 2000 µg/mL | solubility at 30 s ([1]; aqueous with cosolvent or surfactant or cyclodextrin, 50% glycerol, read-out: Solubility of glycerol-containing formulations post vortexing, 50%): < 2000 µg/mL | solubility at 30 s ([1]; 0% glycerol, read-out: Solubility of glycerol-containing formulations post vortexing, 0%): < 2000 µg/mL | solubility at 30 min ([2]; BSA 40 mg/mL, read-out: Solubility of BSA-containing formulations after 30 min incubation at 18° C., 40 mg/mL): < 2000 µg/mL | solubility ([2]; BSA 40 mg/mL, read-out: Solubility of BSA-containing formulations after overnight incubation at 18° C., 40 mg/mL): < 2000 µg/mL | solubility at 30 min ([2]; BSA 60 mg/mL, read-out: Solubility of BSA-containing formulations after 30 min incubation at 18° C., 60 mg/mL): < 2000 µg/mL | solubility ([2]; BSA 60 mg/mL, read-out: Solubility of BSA-containing formulations after overnight incubation at 18° C., 60 mg/mL): < 2000 µg/mL | solubility at 30 min ([2]; BSA 80 mg/mL, read-out: Solubility of BSA-containing formulations after 30 min incubation at 18° C., 80 mg/mL): < 2000 µg/mL | solubility ([2]; BSA 80 mg/mL, read-out: Solubility of BSA-containing formulations after overnight incubation at 18° C., 80 mg/mL): < 2000 µg/mL | solubility at 30 min ([2]; BSA 100 mg/mL, read-out: Solubility of BSA-containing formulations after 30 min incubation at 18° C., 100 mg/mL): < 2000 µg/mL | solubility ([2]; BSA 100 mg/mL, read-out: Solubility of BSA-containing formulations after overnight incubation at 18° C., 100 mg/mL): < 2000 µg/mL | solubility at 30 s ([2]; BSA 40 mg/mL, read-out: Solubility of BSA-containing formulations post vortexing, 40 mg/mL): < 2000 µg/mL | solubility at 30 s ([2]; BSA 60 mg/mL, read-out: Solubility of BSA-containing formulations post vortexing, 60 mg/mL): < 2000 µg/mL | solubility at 30 s ([2]; BSA 80 mg/mL, read-out: Solubility of BSA-containing formulations post vortexing, 80 mg/mL): < 2000 µg/mL | solubility at 30 s ([2]; BSA 100 mg/mL, read-out: Solubility of BSA-containing formulations post vortexing, 100 mg/mL): < 2000 µg/mL | Solubility of sodium deoxycholate-containing formulations after 30 min incubation at 18° C., 50 mg/mL ([3]; sodium deoxycholate 50 mg/mL, after 30 minutes incubation at 18° C.): MFG | Solubility of sodium deoxycholate-containing formulations after 30 min incubation at 18° C., 100 mg/mL ([3]; sodium deoxycholate 100 mg/mL, after 30 minutes incubation at 18° C.): MFG | solubility at 30 s ([3]; sodium deoxycholate-containing formulation, aqueous with cosolvent or surfactant or cyclodextrin, sodium deoxycholate 12.5 mg/mL, read-out: Solubility of sodium deoxycholate-containing formulations post vortexing, 12.5 mg/mL): < 2000 µg/mL | solubility at 30 s ([3]; sodium deoxycholate-containing formulation, aqueous with cosolvent or surfactant or cyclodextrin, sodium deoxycholate 25 mg/mL, read-out: Solubility of sodium deoxycholate-containing formulations post vortexing, 25 mg/mL): < 2000 µg/mL | solubility at 30 s ([3]; sodium deoxycholate-containing formulation, aqueous with cosolvent or surfactant or cyclodextrin, sodium deoxycholate 50 mg/mL, read-out: Solubility of sodium deoxycholate-containing formulations post vortexing, 50 mg/mL): < 2000 µg/mL | solubility at 30 s ([3]; sodium deoxycholate-containing formulation, aqueous with cosolvent or surfactant or cyclodextrin, sodium deoxycholate 100 mg/mL, read-out: Solubility of sodium deoxycholate-containing formulations post vortexing, 100 mg/mL): < 2000 µg/mL | solubility at 30 min ([3]; sodium deoxycholate-containing formulation, aqueous with cosolvent or surfactant or cyclodextrin, sodium deoxycholate 12.5 mg/mL, after 30 minutes incubation at 18° C.): < 2000 µg/mL | solubility ([3]; sodium deoxycholate-containing formulation, aqueous with cosolvent or surfactant or cyclodextrin, sodium deoxycholate 12.5 mg/mL, overnight incubation at 18° C., read-out: Solubility of sodium deoxycholate-containing formulations after overnight incubation at 18° C., 12.5 mg/mL): > 2000 µg/mL
SMILES: CCN1/C(=C/C=C/c2oc3ccccc3[n+]2CC)Oc2ccccc21 [JAC-R1, 3′,3′-Diethyloxacarbocyanine iodide]
